Measurements from ChEMBL document CHEMBL5260833, “An overview of quinazolines: Pharmacological significance and recent developments” (Eur J Med Chem, 2018).
Converted amounts (≈) assume the structure as drawn.

Columns and labels:
Vaccinia virus [1] = assay: Antiviral activity against Vaccinia virus infected in human MT4 cells measured after 5 days by MTT assay; assay type: functional, organism-based; conditions: Orthopoxvirus vaccinia, MT4, 120 h
Vaccinia virus [2] = assay: Antiviral activity against Vaccinia virus infected in human E6SM cells; assay type: functional; conditions: Orthopoxvirus vaccinia
[3] = Cytotoxicity against human CEM/ADR5000 cells assessed as reduction in cell growth; assay type: toxicity, cell-based
Cytomegalovirus = assay: Antiviral activity against Cytomegalovirus; conditions: Human betaherpesvirus 5
Rattus norvegicus [4] = assay: Inhibition of AII-induced pressor response in normotensive conscious rat administered orally; assay type: functional; conditions: route po
Rattus norvegicus [5] = assay: Inhibition of AII-induced pressor response in normotensive conscious rat administered intravenously; assay type: functional; conditions: route iv
K562 = assay: Anticancer activity against human K562 cells assessed as cell growth inhibition; assay type: functional, cell-based
Mus musculus [6] = assay: Anticonvulsant activity in mouse at 100 mg/kg, ip by MES test relative to control; assay type: functional
Mus musculus [7] = assay: Anticonvulsant activity in PTZ induced mouse at 100 mg/kg, ip relative to control; assay type: functional
[8] = system: Human immunodeficiency virus 1; assay: Antiviral activity against HIV1; assay type: functional, organism-based
[9] = system: Human immunodeficiency virus 1; assay: Therapeutic index, ratio of IC50 for antiviral activity against HIV1 to EC50 for antiviral activity against HIV1; assay type: functional
UO-31 = assay: Anticancer activity against human UO-31 cell assessed as cell growth inhibition measured after 24 hrs by SRB assay; assay type: functional
RXF 393 = assay: Anticancer activity against human RXF 393 cell assessed as cell growth inhibition measured after 24 hrs by SRB assay; assay type: functional
[10] = Anticancer activity against human CNS cell assessed as cell growth inhibition measured after 24 hrs by SRB assay; assay type: functional
Plasmodium falciparum = assay: Antimalarial activity against plasmodium falciparum 3D7 assessed as bacterial growth inhibition; assay type: functional, organism-based
Ovarian carcinoma cell = assay: Anticancer activity against human Ovarian carcinoma cell assessed as cell growth inhibition; assay type: functional; conditions: read-out: ED50 (the source's name)
[11] = Anticancer activity against human Epidermoid carcinoma cell line assessed as cell growth inhibition; assay type: functional; conditions: read-out: ED50 (the source's name)
Tubulin = assay: Inhibition of tubulin polymerization (unknown origin) incubated for 15 mins followed by GTP addition and measured for 20 mins by spectrophotometry; assay type: protein-complex assay, Homo sapiens
MCF7 [12] = assay: Anticancer activity against human MCF7 cell assessed as cell growth inhibition measured after 48 hrs by SRB assay; assay type: functional, cell-based; conditions: MCF7, 48 h
CA46 = assay: Cell cycle arrest in human CA46 cells assessed as reduction in G2/M phase at 10 uM incubated for 24 hrs relative to control; assay type: functional
MCF7 [13] = assay: Cell cycle arrest in human MCF7 cells assessed as reduction in G2/M phase at 10 uM G2/M phase incubated for 24 hrs relative to control; assay type: functional
Rattus norvegicus [14] = assay: Inhibition of AII-induced hypertension in rat assessed as vasoconstrictor at 3 mg/kg, po measured after 2 hrs; assay type: functional

## CCc1nc(-n2c(-c3ccccc3)nc3ccc(Br)cc3c2=O)nc(N)c1-c1ccc(Cl)cc1
Vaccinia virus [1]
  IC50: 0.424 µg/mL (≈ 0.796 µM)
Vaccinia virus [2]
  MIC: 1.92 µg/mL (≈ 3.6 µM)

## C[C@H]1[C@H](OC(=O)CCC(=O)O)O[C@@H]2O[C@@]3(C)CC[C@H]4[C@H](C)CC[C@@H]1[C@@]24OO3 [ARTESUNATE]
[3]
  EC50: 500 nM

## Nc1nc2c(ncn2COC(CO)CO)c(=O)[nH]1 [GANCICLOVIR]
Cytomegalovirus
  EC50: 2600 nM

## CCCCc1nc2ccc(C(C)C)cc2c(=O)n1Cc1ccc(-c2ccccc2S(=O)(=O)NC(=O)C2CC2)cc1
Rattus norvegicus [4]
  ED50: 0.68 mg/kg
Rattus norvegicus [5]
  ED50: 0.25 mg/kg

## CCN(CC)C(=S)SCc1ccc2nc(C)nc(O)c2c1
K562
  IC50: 500 nM

## CCn1c(SCC(=O)NN2C(=O)C(C)S/C2=N\c2ccccc2)nc2ccccc2c1=O (stereo not drawn)
Mus musculus [6]
  Activity: 66%
Mus musculus [7]
  Activity: 66%

## Cc1ccc2c(c1)/C(=N\NC(=O)CSc1nc3ccccc3c(=O)n1-c1ccccc1)C(=O)N2
[8]
  EC50: 68100 nM
  IC50: > 100000 nM
[9]
  Ratio IC50/EC50: >1.47
UO-31
  GI50: 209 nM
RXF 393
  GI50: 1660 nM
[10]
  GI50: 209 nM

## C[C@@H]1CC[C@H]2[C@@H](C)C(=O)O[C@@H]3O[C@@]4(C)CC[C@@H]1[C@]32OO4 [ARTEMISININ]
Plasmodium falciparum
  EC50: 2.4 nM

## COc1cccc(-c2nc(O)c3cc(OC)ccc3n2)c1
Ovarian carcinoma cell
  EC50: < 5 µg/mL
[11]
  EC50: < 5 µg/mL

## O=c1c2cc(Cl)ccc2nc(/C=C/c2ccccc2)n1-c1ncccn1
Tubulin
  IC50: 5980 nM
MCF7 [12]
  IC50: 310 nM
CA46
  inhibition at 10 µM: 66%
MCF7 [13]
  inhibition at 10 µM: 20%

## CCCCc1nc2ccc([C@H]3OC[C@H]4[C@@H]3ON3[C@@H]4CCC3(C)C)cc2c(=O)n1Cc1ccc(-c2ccccc2-c2nn[nH]n2)cc1
Rattus norvegicus [14]
  Activity: 70 mmHg
